Assay results: patent US10294202B2, “Pyrrolidinones as herbicides” (FMC Corporation, priority 2013, dated 2019)

Tests used:
Test in all cases: Test E preemergence herbicide test
Set-up in all cases: key: 0 = no effect, 100 = complete control
sandbur = assay type: in vivo, Cenchrus echinatus
From the text: (§1) Seeds of plant species selected from corn (Zea mays), soybean (Glycine max), velvetleaf (Abutilon theophrasti), lambsquarters (Chenopodium album), wild poinsettia (Euphorbia heterophylla), pigweed, palmer (palmer pigweed, Amaranthus palmeri), waterhemp (common waterhemp, Amaranthus rudis), surinam grass (Brachiaria decumbens), crabgrass, large (large crabgrass, Digitaria sanguinalis), crabgrass, Brazil (Brazilian crabgrass, Digitaria horizontalis), panicum, fall (fall panicum, Panicum dichotomiflorum), foxtail, giant (giant foxtail, Setaria faberii), foxtail, green (green foxtail, Setaria viridis), goosegrass (Eleusine indica), johnsongrass (Sorghum halepense), ragweed (common ragweed, Ambrosia elatior), barnyardgrass (Echinochloa crus-galli), sandbur (southern sandbur, Cenchrus echinatus), arrowleaf […] rhombifolia), ryegrass, Italian (Italian ryegrass, Lolium multiflorum), dayflower, VA (Virginia dayflower, Commelina virginica), field bindweed (Convolvulus arvensis), morningglory (Ipomoea coccinea), nightshade (eastern black nightshade, Solanum ptycanthum), kochia (Kochia scoparia), nutsedge, yellow (yellow nutsedge, Cyperus esculentus), cocklebur (common cocklebur, Xanthium strumarium), smartweed (ladysthumb smartweed, Polygonum Persicaria) and beggarticks (hairy beggarticks, Bidens pilosa), were planted into a silt loam soil and treated preemergence with test chemicals formulated in a non-phytotoxic solvent mixture which included a surfactant. Treated plants and controls were maintained in a greenhouse for 21 days, after which time all species were compared to controls and visually evaluated. Plant response ratings, summarized in Table E, are based on a scale of 0 to 100 where 0 is no effect and 100 is complete control. A dash (-) response means no test result.

surinam grass = assay type: in vivo, Brachiaria decumbens
From the text: as §1

nutsedge, yellow = assay type: in vivo, Cyperus esculentus
From the text: as §1

field bindweed = assay type: in vivo, Convolvulus arvensis
From the text: as §1

crabgrass, large = assay type: in vivo, Digitaria sanguinalis
From the text: as §1

barnyardgrass = assay type: in vivo, Echinochloa crus-galli
From the text: as §1

wild poinsettia = assay type: in vivo, Euphorbia heterophylla
From the text: as §1

foxtail, giant = assay type: in vivo, Setaria faberii
From the text: as §1

Row | Structure (SMILES) | Plant response rating, Sandbur (sandbur; 31 g ai/ha) | Plant response rating, Sandbur (sandbur; 62 g ai/ha) | Plant response rating, Sandbur (sandbur; 125 g ai/ha) | Plant response rating, Sandbur (sandbur; 250 g ai/ha) | Plant response rating, Surinam Grass (surinam grass; 31 g ai/ha) | Plant response rating, Surinam Grass (surinam grass; 62 g ai/ha) | Plant response rating, Surinam Grass (surinam grass; 125 g ai/ha) | Plant response rating, Surinam Grass (surinam grass; 250 g ai/ha) | Plant response rating, Nutsedge, Yellow (nutsedge, yellow; 31 g ai/ha) | Plant response rating, Nutsedge, Yellow (nutsedge, yellow; 62 g ai/ha) | Plant response rating, Nutsedge, Yellow (nutsedge, yellow; 125 g ai/ha) | Plant response rating, Nutsedge, Yellow (nutsedge, yellow; 250 g ai/ha) | Plant response rating, Field Bindweed (field bindweed; 31 g ai/ha) | Plant response rating, Field Bindweed (field bindweed; 62 g ai/ha) | Plant response rating, Field Bindweed (field bindweed; 125 g ai/ha) | Plant response rating, Field Bindweed (field bindweed; 250 g ai/ha) | Plant response rating, Crabgrass, Large (crabgrass, large; 31 g ai/ha) | Plant response rating, Crabgrass, Large (crabgrass, large; 62 g ai/ha) | Plant response rating, Crabgrass, Large (crabgrass, large; 125 g ai/ha) | Plant response rating, Crabgrass, Large (crabgrass, large; 250 g ai/ha) | further results
1 | O=C1NCC(c2ccc(F)cc2)C1C(=O)Nc1ccccc1F (racemic) [Compound 16] | 0 | 35 | 70 | 95 | 0 | 20 | 35 | 60 | 0 | 0 | 0 | 0 | 0 | 0 | 0 | 0 | 20 | 30 | 75 | 98 | Plant response rating, Sandbur (sandbur; 16 g ai/ha): 0; Plant response rating, Surinam Grass (surinam grass; 16 g ai/ha): 0; Plant response rating, Nutsedge, Yellow (nutsedge, yellow; 16 g ai/ha): 0; Plant response rating, Field Bindweed (field bindweed; 16 g ai/ha): 0; Plant response rating, Crabgrass, Large (crabgrass, large; 16 g ai/ha): 10; Plant response rating, Barnyardgrass (barnyardgrass; 16 g ai/ha): 0; Plant response rating, Barnyardgrass (barnyardgrass; 31 g ai/ha): 0; Plant response rating, Barnyardgrass (barnyardgrass; 62 g ai/ha): 0; Plant response rating, Barnyardgrass (barnyardgrass; 125 g ai/ha): 10; Plant response rating, Barnyardgrass (barnyardgrass; 250 g ai/ha): 70; Plant response rating, Poinsettia, Wild (wild poinsettia; 16 g ai/ha): 0; Plant response rating, Poinsettia, Wild (wild poinsettia; 31 g ai/ha): 0; Plant response rating, Poinsettia, Wild (wild poinsettia; 62 g ai/ha): 0; Plant response rating, Poinsettia, Wild (wild poinsettia; 125 g ai/ha): 0; Plant response rating, Poinsettia, Wild (wild poinsettia; 250 g ai/ha): 0; Plant response rating, Foxtail, Giant (foxtail, giant; 16 g ai/ha): 0; Plant response rating, Foxtail, Giant (foxtail, giant; 31 g ai/ha): 0; Plant response rating, Foxtail, Giant (foxtail, giant; 62 g ai/ha): 15; Plant response rating, Foxtail, Giant (foxtail, giant; 125 g ai/ha): 25; Plant response rating, Foxtail, Giant (foxtail, giant; 250 g ai/ha): 95
2 | O=C1NCC(c2cccc(Br)c2)C1C(=O)Nc1ccccc1F (stereo not drawn) [Compound 66] | 0 | 0 | 0 | 35 | 0 | 0 | 0 | 35 | 0 | 0 | 0 | 0 | 0 | 0 | 0 | 0 | 10 | 75 | 90 | 98 | Plant response rating, Sandbur (sandbur; 16 g ai/ha): 0; Plant response rating, Surinam Grass (surinam grass; 16 g ai/ha): 0; Plant response rating, Nutsedge, Yellow (nutsedge, yellow; 16 g ai/ha): 0; Plant response rating, Field Bindweed (field bindweed; 16 g ai/ha): 0; Plant response rating, Crabgrass, Large (crabgrass, large; 16 g ai/ha): 0; Plant response rating, Barnyardgrass (barnyardgrass; 16 g ai/ha): 0; Plant response rating, Barnyardgrass (barnyardgrass; 31 g ai/ha): 0; Plant response rating, Barnyardgrass (barnyardgrass; 62 g ai/ha): 20; Plant response rating, Barnyardgrass (barnyardgrass; 125 g ai/ha): 50; Plant response rating, Barnyardgrass (barnyardgrass; 250 g ai/ha): 50; Plant response rating, Poinsettia, Wild (wild poinsettia; 16 g ai/ha): 0; Plant response rating, Poinsettia, Wild (wild poinsettia; 31 g ai/ha): 0; Plant response rating, Poinsettia, Wild (wild poinsettia; 62 g ai/ha): 0; Plant response rating, Poinsettia, Wild (wild poinsettia; 125 g ai/ha): 0; Plant response rating, Poinsettia, Wild (wild poinsettia; 250 g ai/ha): 20; Plant response rating, Foxtail, Giant (foxtail, giant; 16 g ai/ha): 0; Plant response rating, Foxtail, Giant (foxtail, giant; 31 g ai/ha): 0; Plant response rating, Foxtail, Giant (foxtail, giant; 62 g ai/ha): 0; Plant response rating, Foxtail, Giant (foxtail, giant; 125 g ai/ha): 98
3 | O=C1NCC(c2ccc(C(F)(F)F)cc2)C1C(=O)Nc1ccc(F)c(F)c1F (stereo not drawn) [Compound 232] | 35 | 65 | 90 | 90 | 40 | 50 | 70 | 98 | 0 | 0 | 0 | 0 | 0 | 0 | 40 | 40 | 95 | 98 | 98 | 98 | Plant response rating, Barnyardgrass (barnyardgrass; 31 g ai/ha): 60; Plant response rating, Barnyardgrass (barnyardgrass; 62 g ai/ha): 70; Plant response rating, Barnyardgrass (barnyardgrass; 125 g ai/ha): 98; Plant response rating, Barnyardgrass (barnyardgrass; 250 g ai/ha): 95; Plant response rating, Poinsettia, Wild (wild poinsettia; 31 g ai/ha): 0; Plant response rating, Poinsettia, Wild (wild poinsettia; 62 g ai/ha): 0; Plant response rating, Poinsettia, Wild (wild poinsettia; 125 g ai/ha): 35; Plant response rating, Poinsettia, Wild (wild poinsettia; 250 g ai/ha): 40; Plant response rating, Foxtail, Giant (foxtail, giant; 31 g ai/ha): 35; Plant response rating, Foxtail, Giant (foxtail, giant; 62 g ai/ha): 90; Plant response rating, Foxtail, Giant (foxtail, giant; 125 g ai/ha): 95; Plant response rating, Foxtail, Giant (foxtail, giant; 250 g ai/ha): 98
